Reference: patent US20250275993A1, “GLYCOSYLATION INHIBITORS AS THERAPEUTICS FOR STROKE” (The Regents of the University of California, priority 2022, published 2025)

Experiments:
β-Glucosidase = experiment: β-glucosidase activity assay; format: biochemical, almond; conditions: up to 2 mM
Description: a-mannosidase activity was measured using substrate p-nitrophenyl α-mannopyranoside (1 mM). Enzyme from Jack Bean (M7257) (final concentration of 0.077 U) was incubated at 37° C. in a final volume of 50 μl of 50 mM potassium phosphate buffer, pH 7.5. α-glucosidase was assayed with substrate p-nitrophenyl a-glucoside (7 mM). Enzyme from Saccharomyces cerevisiae-type 1 (Sigma, G5003) (final concentration of 0.1 U) was incubated at 37° C. in a final volume of 50 μl of PBS, pH 7.5. β-Glucosidase was assayed with substrate 4-nitrophenyl β-D-glucopyranoside (Roche). Enzyme from almond (Sigma, G0395) (final concentration of 0.002 U) was incubated at 37° C. in a final volume of 50 μl of PBS, pH 7.5 […]. The incubation was stopped by addition of an equal volume of acid-based stop solution (R&D systems, 895032). Enzymatic activity was measured at 405 nm. α-glucosidase from Saccharomyces cerevisiae type I (G5003) with p-nitrophenyl α-D-glucopyranoside (Sigma, N1377) as the substrate.

[1] = test system: bovine retinal microvascular endothelial cells (BREC); experiment: BREC proliferation assay; format: cell-based; conditions: bovine retinal EC
Description: Proliferation assays with BCECs and BRECs were performed. Log-phase growing BCECs or BRECs (passage <10) were trypsinized, re-suspended and seeded in 96-well plates (no coating) in low-glucose DMEM supplemented with 10% bovine calf serum, 2 mM glutamine, and antibiotics (growth medium), at a density of 1200-1500 cells per well in 200 μl volume. All reagents were added at the indicated final concentrations. After 3-6 days, cells were incubated with AlamarBlue for 4 hrs. Fluorescence was measured at 530 nm excitation wavelength and 590 nm emission wavelength. The experiments were repeated at least three times. To create a hypoxic condition, cells were placed in a hypoxia incubator with a mixture of gas consisting of 1% O2, 5% CO2 and 94% N2. On each 96-well plate, untreated and VEGF-treated (10/ng/ml) wells were included to monitor plate-to-plate variations. 20% methanol or 0.05% DMSO served as negative controls. […] Human RMVECs and human adult DMVECs were split into Gelatin-coated 96 wells (2000 cells per well) in low glucose DMEM containing 10% FBS. 1200 cells/well was set up for proliferation assay in low glucose media containing 0.5% FBS. Data was collected at day 4 or 5. HUVEC (p7-10) were grown on gelatin-coated plate until it reached 70-80% confluency.

[2] = mouse, in vivo, po
Description: Following oral administration, there was a relatively rapid decline in ManN plasma levels. Plasma free ManN levels reached a peak level of −100 nmol/ml plasma at 1 hr. […] 2 hours after oral feeding of 20% ManN, muscle samples were taken from the ischemic legs. A significant amount of ManN reached the ischemic legs, with 0.17+1−0.18 nmol/mg protein of free ManN and 0.91+1−0.24 nmol/mg protein of ManN-6p.
To test ManN stability in wound fluid collected from mice with skin infection as described below, 1.5 μl of 5% ManN solution was added to each 200 μl wound fluid which was first diluted 1:1 (v/v) with PBS. At each time point, samples were taken from 37° C. incubator and stored at −80° C. Plasma proteins were precipitated by adding ice cold acetonitrile to plasma: acetonitrile 1:3 (v/v) ratio. Samples were kept over ice for 1 hr and then centrifuged at 12000 g for 10 min at 7° C. to form a pellet. Supernatants were transferred to other tubed, dried down on a Speed Vac and then reconstituted in UltraPure distilled water and filtered through pre-washed Nanosep 3K Omega filters (Pall Corporation). The filtrate was dried down on Speed Vac. The dry samples were dissolved in 100 μl of water and 2 μl plasma or wound fluid sample was subjected to HPLC analysis. Neutral and amino sugars were separated on a Dionex CarboPac PAI column 4 mm×250 mm with 4 mm×50 mm guard column. An isocratic gradient of 19 mM sodium hydroxide with 0.95 mM sodium acetate was used at a flow rate of 1 ml/min with 20 min run. Data was collected using the Dionex ICS-3000 HPLC system with pulsed amperometric detector using standard Quad waveform. ManN was identified and quantified by comparison with monosaccharide standard using Thermo Scientific Chromeleon software. No ManN samples served as negative controls.

HUVEC = HUVEC migration assay; format: cell-based, human; conditions: 40 μM ManN alone
Description: (§1) HUVECs (passage 6-8) were cultured and serum-starved as described in “Western Blots”. Ten thousand cells in […] of EBM-2 medium were then added to the upper chamber of […] pore size cell culture inserts (Falcon) coated with 0.1% gelatin. The lower compartment was filled with […] EBM-2 medium containing various agents. The plates were incubated at 37° C. to allow migration. After 4 hrs, cells were fixed with 4% PFA for 20 min and then stained with crystal violet (Sigma-Aldrich) for 20 min at RT. Migrated cells on the bottom side of the insert membrane were quantified by counting whole area of the insert at 40× magnification. The experiments were carried out in triplicate and repeated three times. BCEC migration was set up similarly, except that wells were coated with FN, cells were suspended in 1% serum media and migration time was 18-24 hrs.

BCEC = BCEC transwell migration assay; format: cell-based, bovine; conditions: ManN at 40 μM
Description: as §1

[3] = test system: vascular permeability in guinea pig skin; experiment: Vascular permeability assay (modified Miles assay); format: in vivo; conditions: ManN 1 ng-5 μg, VEGF 25 ng, intradermal
Description: Vascular permeability was assessed using a modified Miles assay. Hairless male guinea pigs (Crl: HA-Hrhr/IAF, 75 days old, 450-500 g, Charles River Laboratories) were anesthetized by intraperitoneal (i.p.) administration of xylazine (5 mg/kg) and ketamine (75 mg/kg). The animals then received an intravenous injection (penile vein) of 1 ml of 1% Evans blue dye. After 15 mins, intradermal injections (0.05 ml/per site) of different doses of ManN were administrated into the area of trunk posterior to the shoulder. All reagents were diluted in PBS for intradermal administration. 25 ng of VEGF165 per site was used as positive control. 30 mins after the intradermal injections, animals were euthanized by i.p. injection of pentobarbital (200 mg/kg). Skin tissues were dissected from the connective tissues and photographed.

## N[C@H](C=O)[C@@H](O)[C@H](O)[C@H](O)CO [ManN, 2-Amino-2-deoxy-D-mannose]
β-Glucosidase
  effect on β-glucosidase: No effect
[1]
  additive effects in promoting BREC proliferation: Additive effects
[2]
  plasma ManN after 3 hours relative to peak: about half of that amount
  plasma free ManN peak level: ~100 nmol/ml plasma
  time of plasma peak level: 1 h
[2]; 2 h
  ManN-6p in ischemic leg muscle: 0.91+1−0.24 nmol/mg protein
  free ManN in ischemic leg muscle: 0.17+1−0.18 nmol/mg protein
HUVEC
  HUVEC migration: stimulation of migration and wound closure
BCEC
  additivity with VEGF in BCEC migration: significant additivity with VEGF in promoting BCEC migration
[3]
  induction of vascular permeability: no permeability-enhancing effects
